One block for each compound: values may come before it.
How the values were obtained:
[1] = test system: primary mouse hepatocytes; experiment: In vitro glucose production, VPC and lipolysis in isolated hepatocytes; assay type: cell-based; settings: for glucagon-stimulated VPC flux / glucagon-stimulated glucose production: WT hepatocytes, 100 nM glucagon, 8 hr
Description: For in vitro glucose production and lipolysis studies, primary mouse hepatocytes were isolated by the Yale Liver Center. Following removal of cell debris by Percoll density gradient centrifugation, cells were plated on 6-well collagen-I coated dishes (4.0×10^5 cells/well) in 2 ml recovery media (DMEM High Glucose containing 10% FBS, 2% penicillin-streptomycin, 100 nM dexamethasone, 1 nM insulin, and 10 mM HEPES). After incubation for 6 hr at 37° C. and 5% CO2, the attached cells were washed once in 1×PBS and then incubated overnight in 2 ml Low Glucose Culture Media (DMEM Low Glucose supplemented with 10% FBS, 2% penicillin-streptomycin and 10 mM HEPES for glucose production studies) or Serum Free Low Glucose Culture Media (DMEM Low Glucose supplemented with 0.5% fatty acid free BSA, 2% penicillin-streptomycin and 10 mM HEPES for lipolysis assays). […] After incubation for 8 hr at 37° C. and 5% CO2, cell culture media was collected for analysis of glucose, NEFA, and glycerol concentrations as described above. VPC was determined by measuring VPC/VEGP by PINTA as described above using 300 μL of the collected media, and multiplying this ratio by the measured glucose production rate. In a subset of studies, cells were incubated for 8 hr during the glucose production assay in media containing one of the following agents (all dissolved in 0.5% DMSO), or 0.5% DMSO vehicle: 20 μM ET-18-OCH3 (Santa Cruz), 100 μM U-73122 (Sigma), 30 nM thapsigargin (Sigma), 100 nM vasopressin (Sigma) 50 μM 2-APB (R&D Systems), 70 μM caffeine (Sigma), 1 mM malic enzyme inhibitor hydroxymalonate (Sigma). To inhibit PKA, hepatocytes were incubated in H-89 […] hydrate (Sigma, 25 μM) dissolved in media, or media lacking H-89 as a control. In the insulin treatment studies, hepatocytes were incubated in 1 nM insulin with 5% BSA and glucose production media for the duration of the glucose production assay. In the in vitro atglistatin study, hepatocytes were incubated in 10 μM atglistatin in 0.1% EtOH, or 0.1% EtOH vehicle. All values were normalized to total protein content determined from whole-cell lysates by a BCA protein assay (Thermo Fisher Scientific) according to the manufacturer's instructions and expressed as fold change verses vehicle-treated cells.

[2] = test system: primary hepatocytes (cytosolic and mitochondrial calcium); experiment: Ca2+ imaging in isolated hepatocytes; assay type: cell-based, mouse
Description: Primary hepatocytes were isolated by the Yale Liver Center from wild-type and InsP3R-I KO mice and plated on glass coverslips coated with Rat Collagen Type I. Cells were loaded with the ratiometric cytosolic Ca^2+ indicator dye, Fura-2 AM (Thermo Fisher Scientific), or the mitochondrial matrix-targeted Ca^2+ indicator, Rhod-2 AM (Thermo Fisher Scientific) according to manufacturer's instructions. Ca^2+ imaging experiments were performed in 4-(2-hydroxyethyl)-1-piperazine ethanesulfonic acid (HEPES)-buffered balanced salt solution (25 mM HEPES, 121 mM NaCl, 4.7 mM KCl, 1.2 mM MgSO4, 1.2 mM KPO4, 5 mM NaHCO3, 2.0 mM CaCl2, 10 mM Glucose, pH 7.4) with or without the PKA inhibitor H-89 (25 μM) two to five hr following initial plating. Coverslips were transferred to a custom-built perfusion chamber on the stage of an inverted microscope connected to a RedShirtImaging camera (Olympus Life Science, Waltham, Mass.). […] For cytoplasmic calcium readings, changes in fluorescence (F, λ=340) were normalized by the initial fluorescence (F0, λ=380) and were expressed as F/F0. […] Individual cell responses were normalized to their respective baseline Rhod-2 AM fluorescence values, and changes were expressed as Normalized Δ Fluorescence.

[3] = test system: hepatic gluconeogenesis and mitochondrial oxidation (VPC, VCS); experiment: Alanine replacement in 48 hr fasted rats; assay type: in vivo, rat
Description: Hepatic fluxes (whole-body glucose turnover, VPC and VCS), liver TCA cycle intermediate concentrations, and plasma metabolites and hormones were measured as described below (Flux Measurements). […] Liver and muscle glycogen concentrations were assessed using amyloglucosidase digestion. Liver TAG content was measured using the method of Bligh and Dyer (Bligh and Dyer, Can. J. Biochem. Physiol. 37, 911-917, 1959): lipids were extracted from livers using 2:1 chloroform:methanol, and the Sekisui triglyceride-SL reagent was used to measure triglyceride content spectrophotometrically. Liver and muscle DAG content and liver acetyl- and malonyl-CoA concentrations were measured by LC-MS/MS as described by Yu and Perry (Yu, et al. J. Biol. Chem. 2002, 277, 50230-50236; Perry, et al., J. Clin. Invest. 2017, 127, 657-669). […] The samples were homogenized in […] ice-cold methanol using a TissueLyser and filtered through a Nanosep filter. LC-MS/MS (AbSCIEX 6500 QTRAP with a Shimadzu ultrafast liquid chromatography system, negative ion mode) was again used to monitor the relevant ion pairs: succinate and [^13C4]succinate, 117/99 and 121/103, respectively; malate and [^13C4]malate, 133/115 and 137/119, respectively; and citrate and [13C6]citrate, 191/173 and 197/179, respectively. […] Hepatic PKCε translocation, gluconeogenic enzyme protein expression, ApoB (antibody from Meridian Life Science, Memphis, Tenn.), and PGC1α (antibody from Santa Cruz Biotechnology, Dallas, Tex.) protein expression were assessed by western blot. Expression of each of these proteins was normalized to GAPDH.

[4] = molecular target: T1, ATGL (Rattus norvegicus, UniProt P0C548); experiment: ATGL inhibitor atglistatin in 0, 6, 16 and 48 hr fasted rats; assay type: in vivo
T1 construct: from tissue; host or cells: live rat, in vivo (intraperitoneal dosing)
T1 sequence (P0C548 1-478): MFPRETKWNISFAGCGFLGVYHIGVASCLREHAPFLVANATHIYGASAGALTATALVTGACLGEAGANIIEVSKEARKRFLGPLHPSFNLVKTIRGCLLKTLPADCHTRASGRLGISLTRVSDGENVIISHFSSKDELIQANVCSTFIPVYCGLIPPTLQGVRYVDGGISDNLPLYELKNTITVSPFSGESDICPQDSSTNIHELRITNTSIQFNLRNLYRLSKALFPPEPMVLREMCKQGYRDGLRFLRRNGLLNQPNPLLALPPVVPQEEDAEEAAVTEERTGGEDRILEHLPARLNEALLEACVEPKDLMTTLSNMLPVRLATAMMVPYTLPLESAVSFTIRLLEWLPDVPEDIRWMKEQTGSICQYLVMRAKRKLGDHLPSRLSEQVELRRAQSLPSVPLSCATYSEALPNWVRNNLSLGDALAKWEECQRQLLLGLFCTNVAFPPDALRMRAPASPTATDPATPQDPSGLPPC
Description: Liver and muscle glycogen concentrations were assessed using amyloglucosidase digestion. Liver TAG content was measured using the method of Bligh and Dyer (Bligh and Dyer, Can. J. Biochem. Physiol. 37, 911-917, 1959): lipids were extracted from livers using 2:1 chloroform:methanol, and the Sekisui triglyceride-SL reagent was used to measure triglyceride content spectrophotometrically. Liver and muscle DAG content and liver acetyl- and malonyl-CoA concentrations were measured by LC-MS/MS as described by Yu and Perry (Yu, et al. J. Biol. Chem. 2002, 277, 50230-50236; Perry, et al., J. Clin. Invest. 2017, 127, 657-669). […] The samples were homogenized in […] ice-cold methanol using a TissueLyser and filtered through a Nanosep filter. LC-MS/MS (AbSCIEX 6500 QTRAP with a Shimadzu ultrafast liquid chromatography system, negative ion mode) was again used to monitor the relevant ion pairs: succinate and [^13C4]succinate, 117/99 and 121/103, respectively; malate and [^13C4]malate, 133/115 and 137/119, respectively; and citrate and [13C6]citrate, 191/173 and 197/179, respectively. […] Hepatic PKCε translocation, gluconeogenic enzyme protein expression, ApoB (antibody from Meridian Life Science, Memphis, Tenn.), and PGC1α (antibody from Santa Cruz Biotechnology, Dallas, Tex.) protein expression were assessed by western blot. Expression of each of these proteins was normalized to GAPDH.

[5] = molecular target: glucocorticoid receptor (Rattus norvegicus, UniProt P06536)
glucocorticoid receptor, sequence (P06536 whole entry, the tested form may be a part): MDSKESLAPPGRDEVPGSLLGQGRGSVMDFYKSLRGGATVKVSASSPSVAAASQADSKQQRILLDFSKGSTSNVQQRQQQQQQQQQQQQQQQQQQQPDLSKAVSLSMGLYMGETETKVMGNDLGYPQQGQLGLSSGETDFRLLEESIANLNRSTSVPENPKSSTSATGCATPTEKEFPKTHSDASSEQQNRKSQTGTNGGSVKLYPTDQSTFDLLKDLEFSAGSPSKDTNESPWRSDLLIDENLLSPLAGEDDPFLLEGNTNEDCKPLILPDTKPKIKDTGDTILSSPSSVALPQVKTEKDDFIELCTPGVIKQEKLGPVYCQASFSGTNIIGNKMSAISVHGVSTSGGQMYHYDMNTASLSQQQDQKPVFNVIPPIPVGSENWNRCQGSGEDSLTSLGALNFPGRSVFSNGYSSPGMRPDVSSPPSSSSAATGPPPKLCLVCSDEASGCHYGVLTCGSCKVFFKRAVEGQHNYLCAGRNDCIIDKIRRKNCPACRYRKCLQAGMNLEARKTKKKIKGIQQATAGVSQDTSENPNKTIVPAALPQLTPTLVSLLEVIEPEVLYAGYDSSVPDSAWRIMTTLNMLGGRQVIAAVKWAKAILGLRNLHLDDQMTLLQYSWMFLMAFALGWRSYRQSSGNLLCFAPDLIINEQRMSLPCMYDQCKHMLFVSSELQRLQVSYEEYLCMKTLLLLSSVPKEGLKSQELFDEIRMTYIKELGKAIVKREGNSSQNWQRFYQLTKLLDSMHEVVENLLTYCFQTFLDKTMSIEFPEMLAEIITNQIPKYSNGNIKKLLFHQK
Description: 8, 16, and 48 hr fasted rats were injected with a small molecule inhibitor of glycogen phosphorylase, 1-(3-(3-(2-Chloro-4,5-difluorobenzoyl) ureido)-4-methoxyphenyl)-3-methylurea (Sigma #361515; 5 mg/kg IV) and a tracer infusion of [2,3,3,3-^2H4]alanine ([…]prime for 5 min and […] continuous) and [3-^3H]glucose (0.3 μCi/min prime for 5 min and 0.3 μCi/min continuous) as well as [^13C4] β-hydroxybutyrate, [1,1,2,3,3-^2H5]glycerol, and [^13C16]palmitate at the rates listed in Table 9, for 120 min. Blood samples were obtained before (time zero) and 120 min after treatment with the glycogen phosphorylase inhibitor for measurement of turnover rates and plasma hormone/substrate concentrations. Hepatic acetyl-CoA content was altered by treatment with a CPT-1 inhibitor (etomoxir, 8 mg/kg) or an ATGL inhibitor (atglistatin, […]) in 0, 6, 16, and 48 hr fasted rats. Both agents were solubilized by suspending the drug in 4% ethanol/96% normal saline, heating to 60° C., and sonicating, and were cooled to room temperature before they were injected intraperitoneally. […] In these animals plasma glucose concentrations were measured every 15 minutes and a variable infusion of 20% glucose (Pfizer Hospira, Lake Forest, Ill.) was used to maintain plasma glucose concentrations ˜3.6-3.7 mM. The physiologic role of glucocorticoids was assessed in 6 and 48 hr fasted rats by treatment with a glucocorticoid receptor antagonist, mifepristone. Following a 2 hr tracer infusion at the rates described above to assess fatty acid, glycerol, glucose, and β-hydroxybutyrate turnover, rats were injected with mifepristone (40 mg/kg) IV. The tracer infusion was continued and the tracer of each of the above substrates was again measured 2 hr after treatment with mifepristone.
All whole-body substrate turnover rates were calculated using the equation Turnover=([Tracer APE/Plasma APE]−1)*Infusion rate, where APE designates the atom percent enrichment measured by mass spectrometry as described below (Biochemical Analysis). All chemicals used for flux analysis were obtained from SIGMA. Turnover of glucose, glycerol, and β-hydroxybutyrate were determined by gas chromatography-mass spectrometry (GC-MS). Briefly, both glucose and glycerol were deprotonized with 5 volumes of methanol, derivitized with 3 volumes of 1:1 acetic anhydride:pyridine, heated to 65° C. for 20 min, and 1 volume of methanol was added, then GC-MS was used in CI mode to measure glucose enrichment and EI mode to measure glycerol enrichment, with turnover calculated using the equation above. β-Hydroxybutyrate was deprotonized with 5 volumes of methanol and derivitized with 3 volumes of n-butanol 4N HCl, after which the samples were heated to 65° C. for 60 min, evaporated under N2 gas, and re-suspended in […] of trifluoroacetic acid:methylene chloride (1:7). Fatty acid turnover was measured by determining the plasma palmitate enrichment by GC-MS. Samples were prepared for measurements of palmitate enrichment by evaporating […] plasma, dissolving in […] 1:1 chloroform:methanol and derivitizing with […] boron trifluoride/methanol, then heating to 100° C. for 5 min, adding 2 mL pentane and 1 mL water, and centrifuging at low speed for 5 min. […] Alanine turnover was determined in rats infused with [2,3,3,3-^2H4]alanine by preparing samples to measure alanine enrichment by GC/MS (CI mode) using the same protocol as was employed to measure β-hydroxybutyrate enrichment.

[6] = 48-hr fasted rats, 40 mg/kg IV, 2 hr
[7] = hepatocytes, 100 nM vasopressin

SMILES: O=S(=O)(NCCNC/C=C/c1ccc(Br)cc1)c1cccc2cnccc12 [H-89, H-89 dichloroacetate hydrate]
glucagon-stimulated VPC flux [1]: abrogated | glucagon-stimulated glucose production [1]: abrogated | effect of glucagon to stimulate intrahepatic lipolysis ([1]; isolated hepatocytes): abrogated | calcium response to glucagon ([2]; WT hepatocytes, H-89 25 μM): abrogated

SMILES: C[C@H](N)C(=O)O [alanine]
plasma glucose, insulin, and lactate concentrations ([3]; alanine 45 mmol/(kg-min) 2 hr): increased | endogenous glucose production ([3]; alanine infusion): increased | increase in plasma leptin concentrations ([3]; alanine infusion): 3 fold | liver tricarboxylic acid cycle intermediate concentrations ([3]; alanine infusion): increased | plasma glucagon ([3]; alanine infusion): independent of any change | pyruvate carboxylase flux (VPC) ([3]; alanine infusion): increased | rates of hepatic mitochondrial oxidation (VCS) ([3]; alanine infusion): increased

plasma corticosterone concentration ([4]; 16- and 48-hr fasted rats): increases | plasma glucose concentrations ([4]; 16- and 48-hr fasted rats): decreased | plasma leptin ([4]; 16- and 48-hr fasted rats): reductions | hepatic acetyl-CoA content, hepatic gluconeogenesis, and plasma glucose and insulin concentrations ([4]; 16- to 48-hr fasted rats): suppressed | WAT lipolysis ([4]; 48-hr fasted rats): suppression | hepatic acetyl-CoA content ([4]; 48-hr fasted rats): suppression | plasma lactate, epinephrine, and norepinephrine concentrations and hepatic malonyl-CoA content ([4]; fasted rats): unchanged
SMILES: CN(C)C(=O)Nc1cccc(-c2ccc(N(C)C)cc2)c1 [atglistatin]
glucagon-stimulated VPC flux [1]: no effect | glucagon-stimulated glucose production [1]: no effect

reduction in plasma leptin concentrations ([5]; 48-hr fasted rats): 60% | WAT lipolysis [5, 6]: decreased | ketogenesis [5, 6]: decreased | plasma glucose concentrations [5, 6]: decreased | whole-body glucose turnover [5, 6]: decreased | WAT lipolysis, whole body glucose turnover, or plasma glucose or insulin concentrations ([5]; recently fed rats (6 hr)): no impact
SMILES: CC#C[C@]1(O)CC[C@H]2[C@@H]3CCC4=CC(=O)CCC4=C3[C@@H](c3ccc(N(C)C)cc3)C[C@@]21C [mifepristone]

SMILES: NC(=O)CC[C@@H]1NC(=O)[C@H](Cc2ccccc2)NC(=O)[C@H](Cc2ccc(O)cc2)NC(=O)[C@@H](N)CSSC[C@@H](C(=O)N2CCC[C@H]2C(=O)N[C@@H](CCCN=C(N)N)C(=O)NCC(N)=O)NC(=O)[C@H](CC(N)=O)NC1=O [vasopressin]
VPC (effect of glucagon) [1, 7]: recapitulated | glucose production (effect of glucagon) [1, 7]: recapitulated | intrahepatic lipolysis (effect of glucagon) ([1]; hepatocytes, vasopressin): recapitulated | mitochondrial and cytosolic calcium signaling ([2]; isolated WT hepatocytes (not InsP3R-I KO), 100 nM glucagon or 50 nM vasopressin): almost identical increase

From patent US11484608B2, “Non-invasive assessment of hepatic mitochondrial metabolism by positional isotopomer NMR tracer analysis (PINTA)” (YALE UNIVERSITY, priority 2017, dated 2022)
